The results in this text go back to ChEMBL document CHEMBL1201862, “PubChem BioAssay data set” (2004).

Active and inactive are the calls of the source.

Assay [1] addresses Wee1-like protein kinase (Homo sapiens, UniProt P30291). Kind of assay: G2/M cell cycle arrest in HeLa, late-stage follow-up, mechanism study for Wee1 degradation inhibitor project, FACS, panel member Wee1 Degradation (AID 2088).
In assay [2] the target is G2/mitotic-specific cyclin-B1 (Homo sapiens, UniProt P14635). Kind of assay: G2/M cell cycle arrest in HeLa, late-stage follow-up, mechanism study for Wee1 degradation inhibitor project, FACS, panel member Cyclin B Degradation (AID 2088).
Assay [3] addresses Peroxisome proliferator-activated receptor gamma/Nuclear receptor coactivator 2 (Homo sapiens, UniProt P37231). Type of assay: functional.
Assay [4] deals with Peroxisome proliferator-activated receptor gamma/Nuclear receptor coactivator 1 (Homo sapiens, UniProt P37231). Format: functional.
The target in assay [5] is T1, RNA-binding protein pos-1 (Caenorhabditis elegans, UniProt G5EF15).
T1 sequence (G5EF15 whole entry): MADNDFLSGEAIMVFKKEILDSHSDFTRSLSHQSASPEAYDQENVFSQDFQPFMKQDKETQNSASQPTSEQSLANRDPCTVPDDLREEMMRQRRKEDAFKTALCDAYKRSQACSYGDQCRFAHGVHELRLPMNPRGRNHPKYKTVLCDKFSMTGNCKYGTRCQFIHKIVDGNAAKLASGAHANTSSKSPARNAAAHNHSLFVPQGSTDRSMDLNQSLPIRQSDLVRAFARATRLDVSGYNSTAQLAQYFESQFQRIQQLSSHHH
The assay is described as follows: inhibitors of POS-1/mex-3 RNA binding, dose response, biochemical, fluorescence polarization (AID 1964).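 Also: purified POS-1 fused to maltose binding protein made in E. coli; potency of compounds blocking POS-1 binding to fluorescent RNA.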 In general terms: Polarisation of emitted light reports the rotation of a fluorescent probe.

The subject of assay [6] is Streptococcus sp. 'group A'. The assay is described as follows: growth inhibition of control SK(-) GAS strain, dose response, counter-screen for streptokinase expression inhibitor project, luminescence, kanamycin, BacTiterGlo, confirmation (AID 1900). Format: functional, organism-based. (In general: Counterscreens check selectivity or assay interference.)
The target in assay [7] is Peroxisome proliferator-activated receptor gamma/Nuclear receptor coactivator 3 (Homo sapiens, UniProt P37231). Type of assay: functional.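 Also: agonist potency for raising coactivator recruitment to the receptor.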
In assay [8] the target is T2, Zinc finger protein mex-5 (Caenorhabditis elegans, UniProt Q9XUB2).
T2 sequence (Q9XUB2 whole entry): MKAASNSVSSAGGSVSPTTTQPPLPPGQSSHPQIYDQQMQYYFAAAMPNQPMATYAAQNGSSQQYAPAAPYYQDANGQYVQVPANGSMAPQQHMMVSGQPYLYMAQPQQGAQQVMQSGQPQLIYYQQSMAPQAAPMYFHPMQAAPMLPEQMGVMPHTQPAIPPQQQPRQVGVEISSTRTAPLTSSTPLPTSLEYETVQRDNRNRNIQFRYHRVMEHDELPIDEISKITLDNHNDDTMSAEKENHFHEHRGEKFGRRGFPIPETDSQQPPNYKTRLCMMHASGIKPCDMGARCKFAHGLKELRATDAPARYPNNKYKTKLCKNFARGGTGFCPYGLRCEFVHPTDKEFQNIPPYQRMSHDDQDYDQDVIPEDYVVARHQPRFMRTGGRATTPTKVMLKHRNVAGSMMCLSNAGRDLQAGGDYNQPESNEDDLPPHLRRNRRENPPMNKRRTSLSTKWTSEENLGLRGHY
Kind of assay: MEX-5/TCR-2 RNA interaction inhibitors, dose response, biochemical, C. elegans, fluorescence polarization (AID 1960).

Assay [9] addresses T3, Streptokinase A (Streptococcus pyogenes serotype M1, UniProt P10520).
T3 sequence (P10520 whole entry): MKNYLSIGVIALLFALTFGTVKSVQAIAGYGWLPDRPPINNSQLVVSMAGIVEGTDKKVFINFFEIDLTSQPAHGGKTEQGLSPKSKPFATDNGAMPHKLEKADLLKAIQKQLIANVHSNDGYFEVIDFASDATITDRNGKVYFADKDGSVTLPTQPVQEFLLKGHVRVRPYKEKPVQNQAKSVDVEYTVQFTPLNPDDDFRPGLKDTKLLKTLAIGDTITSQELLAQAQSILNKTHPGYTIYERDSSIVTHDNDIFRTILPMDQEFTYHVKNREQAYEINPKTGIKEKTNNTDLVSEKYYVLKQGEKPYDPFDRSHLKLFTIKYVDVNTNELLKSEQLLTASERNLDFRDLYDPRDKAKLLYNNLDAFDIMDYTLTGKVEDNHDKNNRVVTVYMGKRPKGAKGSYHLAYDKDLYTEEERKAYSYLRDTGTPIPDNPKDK
The assay is described as follows: S. pyogenes streptokinase expression inhibitors, potency, dose response, plasminogen activation absorbance, OD405 (AID 1914).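 Also: secreted streptokinase activity via plasminogen activation per viability signal from cell pellet.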 Type of assay: functional, Streptococcus pyogenes M1 GAS.

The subject of assay [10] is Streptococcus. Kind of assay: Group A Streptococcus viability loss, dose response, counter-screen for streptokinase expression inhibitor project, luminescence, BacTiterGlo (AID 1915).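 Also: potency for reduction of bacterial viability or growth.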 Type of assay: functional, organism-based.
Assay [11] concerns the target Scavenger receptor class B member 1 (Mus musculus, UniProt Q61009). Kind of assay: inhibitors of SR-BI mediated HDL lipid uptake, dose response, ldlA[mSR-BI] cells, fluorescence, cherry pick (AID 493194).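 Also: cellular uptake of fluorescent DiI-labeled HDL measured as cell fluorescence.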 Format: functional, cell-based.
In assay [12] the target is T4, Mu-type opioid receptor (Homo sapiens, UniProt P35372). Kind of assay: MOR agonists by imaging, SAR follow-up, image-based (AID 2352). Format: functional.
Assay [13] deals with T5, Delta-type opioid receptor (Homo sapiens, UniProt P41143). Kind of assay: DOR agonists, SAR follow-up, image-based (AID 2370). Format: functional.
Assay [14] concerns the target T6, Kappa-type opioid receptor (Homo sapiens, UniProt P41145). The assay is described as follows: KOR antagonists by imaging, SAR follow-up, image-based (AID 2348). Format: functional.
In assay [15] the target is T4, Mu-type opioid receptor. The assay is described as follows: MOR antagonists, SAR follow-up, image-based (AID 2420).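 Also: compounds added before stimulation of receptor with agonist DAMGO.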 Type of assay: functional.
For assay [16], the target named is T6, Kappa-type opioid receptor. Kind of assay: KOR agonist analogs, imaging readout, SAR follow-up, image-based (AID 2359). Type of assay: functional.
Assay [17] deals with T5, Delta-type opioid receptor. Kind of assay: DOR antagonists, SAR follow-up, image-based (AID 2357). Type of assay: functional.
The target of assay [18] is T6, Kappa-type opioid receptor. The assay is described as follows: kappa opioid receptor blockers, cell-based, luminescence, beta-arrestin, SAR follow-up (AID 2285). Type of assay: functional.
A short description of assay [19]: inhibition of K1F phage lysis, E. coli UTI89, bacterial capsule biogenesis inhibitors, alamar blue (AID 488966). Type of assay: functional. For orientation: Resazurin is reduced to fluorescent resorufin, in cell work by metabolically active cells.
Assay [20] concerns the target Signal transducer and activator of transcription 3 (Homo sapiens, UniProt P40763). Kind of assay: STAT3 activators, late-stage profile, late-stage follow-up, cell-based, STAT1 reporter, BCL3 qPCR, cytotoxicity, panel member STAT3 Activation (AID 2049).
Assay [21] addresses NACHT, LRR and PYD domains-containing protein 3 (Homo sapiens, UniProt Q96P20). The assay is described as follows: NALP3 inhibitors in yeast, dose response, luminescent (AID 488799). Type of assay: functional.

By EC50 is commonly meant the concentration that produces a half-maximal response. For orientation: AC50 means the midpoint of the concentration-response curve, whichever way the signal moves. As a reminder, the IC50 is the concentration at which inhibition is half-maximal.

T6 sequence (P41145 whole entry): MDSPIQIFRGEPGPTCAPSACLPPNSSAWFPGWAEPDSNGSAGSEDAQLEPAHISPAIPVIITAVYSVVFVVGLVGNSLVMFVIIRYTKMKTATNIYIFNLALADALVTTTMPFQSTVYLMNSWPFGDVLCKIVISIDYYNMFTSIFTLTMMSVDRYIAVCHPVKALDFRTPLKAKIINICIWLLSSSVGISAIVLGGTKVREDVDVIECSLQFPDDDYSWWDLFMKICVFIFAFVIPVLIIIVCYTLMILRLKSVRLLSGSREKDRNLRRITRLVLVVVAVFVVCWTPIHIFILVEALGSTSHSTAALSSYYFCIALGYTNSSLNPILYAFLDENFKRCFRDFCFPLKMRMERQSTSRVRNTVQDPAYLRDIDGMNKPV
T5 sequence (P41143 whole entry): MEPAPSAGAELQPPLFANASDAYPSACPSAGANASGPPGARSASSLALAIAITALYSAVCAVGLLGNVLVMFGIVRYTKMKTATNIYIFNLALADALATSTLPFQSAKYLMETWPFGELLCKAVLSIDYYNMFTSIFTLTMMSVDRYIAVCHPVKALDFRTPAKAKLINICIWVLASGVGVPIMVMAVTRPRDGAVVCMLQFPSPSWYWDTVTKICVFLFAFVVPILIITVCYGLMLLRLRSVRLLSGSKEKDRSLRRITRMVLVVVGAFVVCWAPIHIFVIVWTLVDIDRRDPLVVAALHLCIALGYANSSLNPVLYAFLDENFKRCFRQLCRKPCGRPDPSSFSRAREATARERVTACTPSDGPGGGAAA
T4 sequence (P35372 whole entry): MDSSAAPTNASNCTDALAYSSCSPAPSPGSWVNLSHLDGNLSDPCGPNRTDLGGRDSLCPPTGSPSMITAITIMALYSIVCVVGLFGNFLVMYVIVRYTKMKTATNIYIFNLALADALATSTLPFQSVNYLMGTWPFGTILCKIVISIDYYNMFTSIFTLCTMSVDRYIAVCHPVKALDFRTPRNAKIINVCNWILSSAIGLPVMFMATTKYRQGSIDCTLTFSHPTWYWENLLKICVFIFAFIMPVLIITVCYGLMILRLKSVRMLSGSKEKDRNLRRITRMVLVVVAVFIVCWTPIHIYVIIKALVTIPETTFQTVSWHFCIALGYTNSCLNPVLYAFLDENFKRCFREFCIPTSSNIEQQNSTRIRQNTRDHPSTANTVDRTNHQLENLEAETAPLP
Chain of Wee1-like protein kinase (P30291 whole entry): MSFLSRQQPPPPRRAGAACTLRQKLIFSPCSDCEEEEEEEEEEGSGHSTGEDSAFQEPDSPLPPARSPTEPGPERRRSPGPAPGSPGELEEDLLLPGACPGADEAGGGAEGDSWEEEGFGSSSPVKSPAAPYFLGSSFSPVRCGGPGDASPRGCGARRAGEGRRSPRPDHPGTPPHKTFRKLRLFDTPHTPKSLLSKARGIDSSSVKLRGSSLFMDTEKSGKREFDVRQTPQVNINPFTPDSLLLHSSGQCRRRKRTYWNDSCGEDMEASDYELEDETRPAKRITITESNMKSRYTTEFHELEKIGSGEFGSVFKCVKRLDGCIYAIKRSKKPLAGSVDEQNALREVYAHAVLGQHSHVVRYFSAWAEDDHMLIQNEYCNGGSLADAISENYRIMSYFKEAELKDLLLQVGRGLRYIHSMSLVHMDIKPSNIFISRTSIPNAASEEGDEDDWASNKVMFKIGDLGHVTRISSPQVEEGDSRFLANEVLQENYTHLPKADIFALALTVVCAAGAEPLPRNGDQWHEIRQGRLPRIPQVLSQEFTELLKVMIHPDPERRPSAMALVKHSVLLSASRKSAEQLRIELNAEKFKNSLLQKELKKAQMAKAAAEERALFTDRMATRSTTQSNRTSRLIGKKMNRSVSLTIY
Chain of Peroxisome proliferator-activated receptor gamma/Nuclear receptor coactivator 1 (P37231 whole entry): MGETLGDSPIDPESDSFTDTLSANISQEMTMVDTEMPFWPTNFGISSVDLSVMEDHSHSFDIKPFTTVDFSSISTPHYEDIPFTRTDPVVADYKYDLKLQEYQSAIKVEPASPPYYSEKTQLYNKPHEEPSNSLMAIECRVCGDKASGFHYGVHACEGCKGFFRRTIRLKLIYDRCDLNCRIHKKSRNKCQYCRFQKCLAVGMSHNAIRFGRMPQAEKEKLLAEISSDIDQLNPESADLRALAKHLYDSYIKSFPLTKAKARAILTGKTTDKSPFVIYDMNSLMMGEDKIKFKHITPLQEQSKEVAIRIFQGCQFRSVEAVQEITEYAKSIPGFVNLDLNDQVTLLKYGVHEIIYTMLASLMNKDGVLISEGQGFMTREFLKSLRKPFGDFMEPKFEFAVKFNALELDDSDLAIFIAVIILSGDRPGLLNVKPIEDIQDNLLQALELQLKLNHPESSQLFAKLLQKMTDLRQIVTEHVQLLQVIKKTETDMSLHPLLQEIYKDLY
Chain of Peroxisome proliferator-activated receptor gamma/Nuclear receptor coactivator 1 (Q15788 whole entry, further chain): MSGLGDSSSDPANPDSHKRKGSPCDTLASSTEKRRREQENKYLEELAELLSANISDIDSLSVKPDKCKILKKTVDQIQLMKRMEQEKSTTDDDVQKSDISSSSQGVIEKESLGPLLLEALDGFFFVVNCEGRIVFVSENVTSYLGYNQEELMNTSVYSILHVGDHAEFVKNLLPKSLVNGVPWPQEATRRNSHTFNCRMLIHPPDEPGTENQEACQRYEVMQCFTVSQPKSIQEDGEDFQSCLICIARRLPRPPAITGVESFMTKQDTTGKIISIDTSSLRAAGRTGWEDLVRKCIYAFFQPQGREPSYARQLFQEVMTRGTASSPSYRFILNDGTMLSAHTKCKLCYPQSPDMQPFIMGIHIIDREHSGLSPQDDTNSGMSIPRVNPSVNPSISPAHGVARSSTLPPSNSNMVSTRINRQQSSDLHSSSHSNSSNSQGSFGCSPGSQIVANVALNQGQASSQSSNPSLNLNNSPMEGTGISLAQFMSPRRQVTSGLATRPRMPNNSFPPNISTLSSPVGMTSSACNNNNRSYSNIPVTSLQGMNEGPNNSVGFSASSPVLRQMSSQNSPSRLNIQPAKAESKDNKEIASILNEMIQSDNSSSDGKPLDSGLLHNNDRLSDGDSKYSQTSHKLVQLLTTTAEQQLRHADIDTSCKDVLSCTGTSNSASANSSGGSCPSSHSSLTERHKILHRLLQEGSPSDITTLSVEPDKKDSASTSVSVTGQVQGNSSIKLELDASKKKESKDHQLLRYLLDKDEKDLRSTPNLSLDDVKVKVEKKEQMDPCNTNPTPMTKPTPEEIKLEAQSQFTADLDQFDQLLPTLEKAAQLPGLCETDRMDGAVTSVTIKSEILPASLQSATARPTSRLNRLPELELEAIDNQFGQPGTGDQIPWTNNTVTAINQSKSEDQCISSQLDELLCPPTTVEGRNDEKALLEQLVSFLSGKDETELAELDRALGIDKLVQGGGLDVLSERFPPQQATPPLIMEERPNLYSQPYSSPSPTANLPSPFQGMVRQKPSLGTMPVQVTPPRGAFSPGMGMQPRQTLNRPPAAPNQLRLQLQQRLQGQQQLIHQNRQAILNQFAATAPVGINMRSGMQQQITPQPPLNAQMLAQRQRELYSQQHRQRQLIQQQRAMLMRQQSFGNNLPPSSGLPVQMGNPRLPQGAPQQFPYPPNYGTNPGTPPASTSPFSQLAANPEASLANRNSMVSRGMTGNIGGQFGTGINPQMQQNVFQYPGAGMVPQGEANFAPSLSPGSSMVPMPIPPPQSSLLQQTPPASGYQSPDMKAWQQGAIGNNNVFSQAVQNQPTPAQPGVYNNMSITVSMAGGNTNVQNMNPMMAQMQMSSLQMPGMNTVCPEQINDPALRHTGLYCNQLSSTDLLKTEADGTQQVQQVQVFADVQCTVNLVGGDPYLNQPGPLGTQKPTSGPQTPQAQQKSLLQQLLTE
Chain of G2/mitotic-specific cyclin-B1 (P14635 whole entry): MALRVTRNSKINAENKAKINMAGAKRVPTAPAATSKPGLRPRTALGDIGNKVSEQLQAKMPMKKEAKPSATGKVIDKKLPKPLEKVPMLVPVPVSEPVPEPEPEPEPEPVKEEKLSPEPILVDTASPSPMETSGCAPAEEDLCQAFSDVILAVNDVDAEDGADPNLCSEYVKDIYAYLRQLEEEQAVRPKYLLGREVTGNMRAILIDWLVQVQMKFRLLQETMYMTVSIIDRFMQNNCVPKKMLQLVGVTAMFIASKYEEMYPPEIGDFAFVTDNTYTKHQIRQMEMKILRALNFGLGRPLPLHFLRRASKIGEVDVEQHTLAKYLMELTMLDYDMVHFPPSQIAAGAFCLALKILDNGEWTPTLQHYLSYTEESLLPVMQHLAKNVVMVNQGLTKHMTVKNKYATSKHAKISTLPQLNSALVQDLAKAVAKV
Chain of Signal transducer and activator of transcription 3 (P40763 whole entry, the tested form may be a part): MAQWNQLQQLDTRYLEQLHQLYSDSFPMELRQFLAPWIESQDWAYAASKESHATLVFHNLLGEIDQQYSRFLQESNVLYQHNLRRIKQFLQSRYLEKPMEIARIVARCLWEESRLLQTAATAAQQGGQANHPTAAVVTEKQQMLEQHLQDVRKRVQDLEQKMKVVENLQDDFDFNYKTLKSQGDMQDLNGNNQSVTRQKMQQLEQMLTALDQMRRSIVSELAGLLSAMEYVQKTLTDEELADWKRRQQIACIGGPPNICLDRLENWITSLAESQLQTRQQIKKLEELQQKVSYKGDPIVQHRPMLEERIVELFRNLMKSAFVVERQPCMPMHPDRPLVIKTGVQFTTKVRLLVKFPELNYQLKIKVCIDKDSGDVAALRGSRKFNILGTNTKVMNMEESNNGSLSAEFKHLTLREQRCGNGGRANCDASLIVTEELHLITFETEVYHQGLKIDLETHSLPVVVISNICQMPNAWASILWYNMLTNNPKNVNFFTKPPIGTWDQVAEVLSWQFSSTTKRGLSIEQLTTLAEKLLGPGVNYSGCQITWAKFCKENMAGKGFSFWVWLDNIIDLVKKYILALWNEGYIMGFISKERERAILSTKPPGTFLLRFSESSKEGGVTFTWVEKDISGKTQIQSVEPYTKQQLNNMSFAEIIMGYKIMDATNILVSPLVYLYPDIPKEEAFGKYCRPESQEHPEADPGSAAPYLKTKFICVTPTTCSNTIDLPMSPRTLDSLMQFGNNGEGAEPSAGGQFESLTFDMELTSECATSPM

For the compound `Cc1ccc(NC(=O)CCCOc2cc(=O)n(C)c3ccccc23)c(Cl)c1`, the EC50 in assay [1] and in assay [2] was > 49.7 µM (inactive) throughout.

With `Cc1cc(C)c2c(c1)NC(c1cc3c(cc1Br)OCO3)C1CC=CC21` (stereo unspecified), the EC50 is > 79.4 µM (not active) in assay [3]; > 79.4 µM (not active) in assay [4]; > 300 µM (not active) in assay [5]; 5.11 µM (active) in assay [6]; > 79.4 µM (not active) in assay [7]; > 300 µM (not active) in [8]. Also, the EC50 in assay [9] is > 150 µM (not active); in assay [10], 114 µM (active). Moreover, the AC50 in [11] is 19 µM (active).

Turning to `Oc1c(C=Nc2cccc3cccnc23)sc2ccccc12`, the EC50 in assay [12], in assay [13] and in [16] was > 32 µM (inactive) throughout. Moreover, the IC50 was 0.533 µM (active) in assay [14], 0.897 µM (active) in assay [15], 1.01 µM (active) in assay [17] and 8.77 µM (active) in [18].

Consider `CCOc1ccc(Br)cc1CSC(=N)N`, for which the IC50 in [19] was > 300 µM (active).

With `COc1cc(NC(=O)c2cc(C3CC3)on2)cc(OC)c1`, the EC50 in assay [20] was > 5.57 µM (inactive).

In the case of `CN(CC(=O)N1CCc2ccccc2C1)c1ccccc1`, the IC50 in assay [21] was > 100 µM (inactive).
